The NIST ThermoML archive (doi:10.1016/j.jct.2018.02.013)

How the values were obtained:
[1] = wn = mass fraction of the nth substance listed; details: 101 kPa, Liquid; for mass density: Vibrating tube method; for viscosity: Cone and plate viscometry; for thermal conductivity: transient hot wire; for electrical conductivity: Direct current cell with electrodes
[2] = molar heat capacity at constant pressure; wn = mass fraction of the nth substance listed; details: 101 kPa, Liquid, Small sample (50 mg) DSC

CCCCCC(=O)[O-].CCCCCCCCCCCCCC[P+](CCCCCC)(CCCCCC)CCCCCC [trihexyl(tetradecyl)phosphonium hexanoate] + O
w2 = 0.1583
Details	electrical conductivity [S/m]	mass density [kg/m3]	molar heat capacity at constant pressure [J/K/mol]	thermal conductivity [W/m/K]	viscosity [mPa·s]
[1], 298.15 K	–	905	–	–	–
[1], 298.2 K	–	–	–	–	79.44
[1], 298.75 K	–	–	–	0.1871	–
[1], 299.4 K	0.0753	–	–	–	–
[1], 303.15 K	–	901.7	–	–	–
[1], 303.2 K	–	–	–	–	63.83
[1], 304 K	0.0926	–	–	–	–
[1], 307.76 K	–	–	–	0.1858	–
[1], 308.1 K	0.11	–	–	–	–
[1], 308.2 K	–	–	–	–	51.41
[1], 313.15 K	–	894.6	–	–	–
[1], 313.2 K	–	–	–	–	41.45
[1], 313.9 K	0.132	–	–	–	–
[1], 317.72 K	–	–	–	0.1838	–
[1], 318.2 K	–	–	–	–	34.56
[1], 318.4 K	0.16	–	–	–	–
[1], 323.15 K	–	888	–	–	–
[1], 323.2 K	–	–	–	–	29.8
[1], 323.6 K	0.184	–	–	–	–
[1], 327.36 K	–	–	–	0.1824	–
[1], 328 K	0.217	–	–	–	–
[1], 328.2 K	–	–	–	–	24.98
[1], 333.15 K	–	880.5	–	–	–
[1], 333.2 K	–	–	–	–	20.36
[1], 333.6 K	0.252	–	–	–	–
[1], 337.88 K	–	–	–	0.1814	–
[1], 338.2 K	–	–	–	–	17.31
[1], 338.9 K	0.297	–	–	–	–
[1], 343 K	0.331	–	–	–	–
[1], 343.15 K	–	874.2	–	–	–
[1], 343.2 K	–	–	–	–	15.85
[1], 347.85 K	–	–	–	0.1791	–
[1], 348.2 K	–	–	–	–	13.19
[1], 349.3 K	0.391	–	–	–	–
[1], 353.15 K	–	867.8	–	–	–
[1], 353.2 K	–	–	–	–	11.18
[1], 358.05 K	–	–	–	0.1774	–
[1], 358.2 K	–	–	–	–	10.4
[1], 363.15 K	–	861	–	–	–
[1], 363.2 K	–	–	–	–	9.406
[1], 368.2 K	–	–	–	–	8.038
[2], 298.15 K	–	–	318.37	–	–
[2], 303.15 K	–	–	320.43	–	–
[2], 308.15 K	–	–	323.18	–	–
[2], 313.15 K	–	–	325.93	–	–
[2], 318.15 K	–	–	328.97	–	–
[2], 323.15 K	–	–	332.11	–	–
[2], 328.15 K	–	–	335.25	–	–
[2], 333.15 K	–	–	339.17	–	–
[2], 338.15 K	–	–	343.3	–	–
[2], 343.15 K	–	–	347.22	–	–
[2], 348.15 K	–	–	351.44	–	–
[2], 353.15 K	–	–	353.31	–	–
[2], 358.15 K	–	–	359	–	–
[2], 363.15 K	–	–	365.08	–	–

CCCCCCCC(=O)[O-].CCCCCCCCCCCCCC[P+](CCCCCC)(CCCCCC)CCCCCC [trihexyl(tetradecyl)phosphonium octanoate] + O
w2 = 0.1478
Details	electrical conductivity [S/m]	mass density [kg/m3]	molar heat capacity at constant pressure [J/K/mol]	thermal conductivity [W/m/K]	viscosity [mPa·s]
[1], 298.15 K	–	901.5	–	–	–
[1], 298.2 K	–	–	–	–	82.71
[1], 299 K	0.0415	–	–	–	–
[1], 299.13 K	–	–	–	0.1872	–
[1], 303.15 K	–	898.1	–	–	–
[1], 303.2 K	–	–	–	–	70.08
[1], 304.4 K	0.051	–	–	–	–
[1], 307.9 K	–	–	–	0.1852	–
[1], 308.2 K	–	–	–	–	58.36
[1], 308.8 K	0.0603	–	–	–	–
[1], 313.15 K	–	891.3	–	–	–
[1], 313.2 K	–	–	–	–	48.63
[1], 313.6 K	0.0724	–	–	–	–
[1], 318.01 K	–	–	–	0.1831	–
[1], 318.2 K	0.0882	–	–	–	41.34
[1], 323.15 K	–	884.7	–	–	–
[1], 323.2 K	–	–	–	–	35.7
[1], 323.8 K	0.101	–	–	–	–
[1], 327.85 K	–	–	–	0.1821	–
[1], 328.2 K	–	–	–	–	30.82
[1], 328.6 K	0.119	–	–	–	–
[1], 333.15 K	–	877.7	–	–	–
[1], 333.2 K	–	–	–	–	26.32
[1], 333.4 K	0.139	–	–	–	–
[1], 337.66 K	–	–	–	0.1801	–
[1], 338.1 K	0.164	–	–	–	–
[1], 338.2 K	–	–	–	–	22.53
[1], 343.15 K	–	870.8	–	–	–
[1], 343.2 K	–	–	–	–	19.93
[1], 343.5 K	0.182	–	–	–	–
[1], 347.48 K	–	–	–	0.1791	–
[1], 348.2 K	–	–	–	–	17.29
[1], 349.7 K	0.215	–	–	–	–
[1], 353.15 K	–	863.8	–	–	–
[1], 353.2 K	–	–	–	–	15.03
[1], 358 K	–	–	–	0.1771	–
[1], 358.2 K	–	–	–	–	13.44
[1], 363.15 K	–	857.1	–	–	–
[1], 363.2 K	–	–	–	–	11.86
[1], 368.2 K	–	–	–	–	10.87
[2], 298.15 K	–	–	319.61	–	–
[2], 303.15 K	–	–	322.43	–	–
[2], 308.15 K	–	–	325.15	–	–
[2], 313.15 K	–	–	326.51	–	–
[2], 318.15 K	–	–	329.23	–	–
[2], 323.15 K	–	–	332.16	–	–
[2], 328.15 K	–	–	335.5	–	–
[2], 333.15 K	–	–	338.32	–	–
[2], 338.15 K	–	–	340.52	–	–
[2], 343.15 K	–	–	342.51	–	–
[2], 348.15 K	–	–	345.96	–	–
[2], 353.15 K	–	–	350.45	–	–
[2], 358.15 K	–	–	353.8	–	–
[2], 363.15 K	–	–	358.19	–	–

CCCCCCCCCC(=O)[O-].CCCCCCCCCCCCCC[P+](CCCCCC)(CCCCCC)CCCCCC [trihexyltetradecylphosphonium decanoate] + O
w2 = 0.1415
Details	electrical conductivity [S/m]	mass density [kg/m3]	molar heat capacity at constant pressure [J/K/mol]	thermal conductivity [W/m/K]	viscosity [mPa·s]
[1], 298.15 K	–	899.1	–	–	–
[1], 298.2 K	–	–	–	–	91.87
[1], 298.55 K	–	–	–	0.1861	–
[1], 299.2 K	0.03	–	–	–	–
[1], 303.15 K	–	895.8	–	–	–
[1], 303.2 K	–	–	–	–	76.66
[1], 303.6 K	0.0369	–	–	–	–
[1], 307.51 K	–	–	–	0.1849	–
[1], 308.2 K	–	–	–	–	64.23
[1], 308.8 K	0.0436	–	–	–	–
[1], 313.15 K	–	889	–	–	–
[1], 313.2 K	0.0524	–	–	–	53.34
[1], 317.84 K	–	–	–	0.1829	–
[1], 318.2 K	–	–	–	–	45
[1], 318.8 K	0.0639	–	–	–	–
[1], 323.15 K	–	882.3	–	–	–
[1], 323.2 K	–	–	–	–	37.98
[1], 323.6 K	0.0733	–	–	–	–
[1], 328.2 K	–	–	–	–	32.86
[1], 328.68 K	–	–	–	0.1809	–
[1], 328.8 K	0.0865	–	–	–	–
[1], 333.15 K	–	875.4	–	–	–
[1], 333.2 K	0.1	–	–	–	28.28
[1], 337.66 K	–	–	–	0.1799	–
[1], 338.2 K	–	–	–	–	24.62
[1], 338.8 K	0.118	–	–	–	–
[1], 343.15 K	–	868.2	–	–	–
[1], 343.2 K	–	–	–	–	21.4
[1], 343.8 K	0.132	–	–	–	–
[1], 347.13 K	–	–	–	0.1785	–
[1], 348.2 K	–	–	–	–	18.91
[1], 348.9 K	0.156	–	–	–	–
[1], 353.15 K	–	860.8	–	–	–
[1], 353.2 K	–	–	–	–	17.1
[1], 358.2 K	–	–	–	0.1762	15.4
[1], 363.15 K	–	853.7	–	–	–
[1], 363.2 K	–	–	–	–	13.95
[1], 368.2 K	–	–	–	–	12.08
[2], 298.15 K	–	–	313.81	–	–
[2], 303.15 K	–	–	319.48	–	–
[2], 308.15 K	–	–	323.73	–	–
[2], 313.15 K	–	–	326.79	–	–
[2], 318.15 K	–	–	328.54	–	–
[2], 323.15 K	–	–	332.14	–	–
[2], 328.15 K	–	–	335.3	–	–
[2], 333.15 K	–	–	338.57	–	–
[2], 338.15 K	–	–	341.41	–	–
[2], 343.15 K	–	–	344.47	–	–
[2], 348.15 K	–	–	348.72	–	–
[2], 353.15 K	–	–	351.99	–	–
[2], 358.15 K	–	–	355.6	–	–
[2], 363.15 K	–	–	360.72	–	–
